Patent US9220799B2, “Bactericidal agent composition” (SUNSTAR ENGINEERING INC., priority 2012, dated 2015)

Key:
[1] = test system: Pseudomonas aeruginosa NBRC13275; experiment: Bactericidal test on carriers with adhered Pseudomonas aeruginosa and dried organic substance (AOAC Official Method 964.02), surviving cell count; Examples 1, 4, 5; type: cell-based
Protocol: The test was conducted in accordance with AOAC Official Method 964.02 Testing Disinfectants against Pseudomonas aeruginosa.
The water prepared as described above to contain oxygen-filled ultrafine bubbles or the purified water of the Japanese Pharmacopoeia was used to dilute povidone iodine such that it was conditioned to 100 mg/L.
A cryopreserved bacterial strain (Pseudomonas aeruginosa NBRC13275) was grown in a tryptic soy agar (Difco; hereinafter referred to as TSA medium) at 36±1° C. for 18-24 hours. The grown cells were transplanted into a tryptic soy broth (Difco; hereinafter referred to as TSB medium) where they were cultured at 36±1° C. for 18-24 hours. The liquids of the thus cultured cells were conditioned with a TSB medium to an approximate value of 10^6 CFU/mL and the resulting liquids were used as test bacterial liquids.
A sterile bioassay cup (stainless steel Penicillin Cup 441-01 made by Sogo Rikagagu glass; hereinafter designated as a carrier) was placed in a 100-mL beaker, into which test bacterial liquids were poured in such amounts that the carrier would be completely immersed (ca. 30-40 mL). After allowing the beaker to stand for 10-15 minutes, the carrier was transferred onto a Petri dish with sterile filter paper spread on the bottom and by allowing the Petri dish to stand at 36±1° C. for 40±2 minutes, the bacterial cells and the organic substance derived from the mediums were dried and adhered to the carrier.
The test liquids preliminarily held at 25±2° C. were each dispensed in 10 mL into centrifugal tubes having a capacity of 50 mL; using a hook of platinum wire, the carriers to which the test bacterium adhered were put into the centrifugal tubes, one for each, and allowed to act at 25±2° C. for 20 minutes. Thereafter, the carriers were transferred into centrifugal tubes containing 10 mL of an inactivator SCDLP medium (Eiken Chemical Co., Ltd.), one for each, so as to inactivate the bactericidal component in the test liquid adhering to the carrier. The carriers were then treated with a sonicator at 20±2° C. for 5 minutes to wash off the test bacterium; the test liquids were agitated for an additional minute with a vortex mixer to prepare sample liquids for cell count and the number of surviving cells was counted. A control was prepared by the same procedure as described above, except that the test liquids were replaced by sterile physiological saline.
The sample liquids for cell count (stock liquids) were serially diluted 10-fold with sterile physiological saline; the sample liquids or the series of dilutions, each weighing a volume of 1 mL, were transferred aseptically into Petri dishes and, after mixing with 20 mL of a TSA medium, they were solidified and cultured at 36±1° C. for 48 hours. Thereafter, colonies growing on the medium were counted to determine the number of surviving cells per carrier (lower limit for quantification: 10 CFU/carrier).
To obtain those results, the test was replicated in five runs (n=5) and after eliminating minimum and maximum values, an averaged cell count for n=3 was indicated as a logarithmic value.
An experiment was conducted by the same method as in Example 1, except for the following points: water containing oxygen-filled ultrafine bubbles prepared as described above or purified water was used to dilute povidone iodine such that it was conditioned to 100 mg/L; in addition, the most frequent particle density of the water containing ultrafine bubbles were adjusted to orders of 10^4, 10^5, 10^6, and 10^8 per mL.
An experiment was conducted by the same method as in Example 1, except that water containing atmospheric air- or C3F8-filled ultrafine bubbles prepared as described above or purified water was used to dilute povidone iodine such that it was conditioned to 100 mg/L.

[2] = test system: Streptococcus mutans (ATCC25175) biofilm; experiment: Bactericidal effect on cariogenic bacteria-formed biofilms, surviving cells in the biofilm; type: cell-based; details: Example 3, 37°C, 20 min
Protocol: Either water containing oxygen-filled ultrafine bubbles prepared as described above or purified water was used to dilute povidone iodine to condition the same to 1.0 mg/mL and 10 mg/mL.
Streptococcus mutans (ATCC25175) was grown in a Tryptic soy Broth supplemented with 0.5% yeast extract (the resulting medium is hereinafter referred to as TSBY medium) at 37° C. until the OD660 was between 0.6 and 0.8 (10^8 cells/mL); the product was used as a test bacterial liquid.
A TSBY medium (plus 1% sucrose) placed in a test tube in a volume of 4950 μL was inoculated with 50 μL of the test bacterial liquid and was cultured at 37° C. for 18 hours to form a biofilm.
From the test tube in which the biofilm was formed, the culture broth was removed by means of an aspirator and the biofilm was washed with 5 mL of an added PBS. After removing the PBS, 5 mL of the test liquid was treated for reaction as it was shaken with a shaking machine (37° C.×20 min). After the 20-min reaction, 5 mL of 0.4% (w/v) sodium thiosulfate in solution was added into the test tube so as to inactivate the bactericidal agent. Using a sonicator, the biofilm was detached from the inner surfaces of the test tube and dispersed with a vortex mixer thereby prepare a sample liquid for cell count; the number of surviving cells in the biofilm was then counted.
The sample liquids for cell count were diluted with a buffer solution; after culture in an MS agar medium (37° C.×36-48 hours), the number of colonies formed was counted to determine the number of surviving cells in the biofilms.
To obtain those results, the test was replicated in 5 runs (n=5).

[3] = Example 1, povidone iodine 100 mg/L conditioned with water (purified water), 25°C, 20 min
[4] = Example 1, povidone iodine 100 mg/L conditioned with water containing oxygen-filled ultrafine bubbles (91 nm; 3.1x10^8, total 2.3x10^10 particles/ml), 25°C, 20 min
[5] = Example 4, povidone iodine 100 mg/L conditioned with water (purified water)
[6] = Example 4, povidone iodine 100 mg/L, water containing oxygen-filled ultrafine bubbles, 81 nm, most frequent particle density 7.2 × 10^4, total 4.2 × 10^6 particles/ml
[7] = Example 4, povidone iodine 100 mg/L, water containing oxygen-filled ultrafine bubbles, 81 nm, most frequent particle density 7.2 × 10^5, total 4.2 × 10^7 particles/ml
[8] = Example 4, povidone iodine 100 mg/L, water containing oxygen-filled ultrafine bubbles, 81 nm, most frequent particle density 7.2 × 10^6, total 4.2 × 10^8 particles/ml
[9] = Example 4, povidone iodine 100 mg/L, water containing oxygen-filled ultrafine bubbles, 81 nm, most frequent particle density 7.2 × 10^8, total 4.2 × 10^10 particles/ml
[10] = Example 5, povidone iodine 100 mg/L conditioned with water (purified water)
[11] = Example 5, povidone iodine 100 mg/L, water containing C3F8-filled ultrafine bubbles (76 nm; 2.7x10^8, total 1.3x10^10 particles/ml)
[12] = Example 5, povidone iodine 100 mg/L, water containing atmospheric air-filled ultrafine bubbles (75 nm; 5.7x10^8, total 4.6x10^10 particles/ml)
[13] = povidone iodine concentration 1 (table head mg/L; text 1.0 mg/mL) conditioned with water (purified water)
[14] = povidone iodine concentration 1 (table head mg/L; text 1.0 mg/mL) conditioned with water containing oxygen-filled ultrafine bubbles (100 nm; 2.0x10^7, total 1.6x10^9 particles/ml)
[15] = povidone iodine concentration 10 (table head mg/L; text 10 mg/mL) conditioned with water (purified water)
[16] = povidone iodine concentration 10 (table head mg/L; text 10 mg/mL) conditioned with water containing oxygen-filled ultrafine bubbles (100 nm; 2.0x10^7, total 1.6x10^9 particles/ml)

povidone iodine
Cell count CFU/carrier average [1, 3]: 8000 CFU/carrier | Cell count CFU/carrier n1 [1, 3]: 23000 CFU/carrier | Cell count CFU/carrier n2 [1, 3]: 19000 CFU/carrier | Cell count CFU/carrier n3 [1, 3]: 26000 CFU/carrier | log value (averaged surviving cell count as logarithmic value) [1, 3]: 3.9 | Cell count CFU/carrier average [1, 4]: 23 CFU/carrier | Cell count CFU/carrier n1 [1, 4]: 10 CFU/carrier | Cell count CFU/carrier n2 [1, 4]: 10 CFU/carrier | Cell count CFU/carrier n3 [1, 4]: 50 CFU/carrier | log value (averaged surviving cell count as logarithmic value) [1, 4]: 1.4 | Cell count CFU/carrier average [1, 5]: 44000 CFU/carrier | Cell count CFU/carrier n1 [1, 5]: 46000 CFU/carrier | Cell count CFU/carrier n2 [1, 5]: 47000 CFU/carrier | Cell count CFU/carrier n3 [1, 5]: 39000 CFU/carrier | Log value [1, 5]: 4.6 | Cell count CFU/carrier average [1, 6]: 5300 CFU/carrier | Cell count CFU/carrier n1 [1, 6]: 5900 CFU/carrier | Cell count CFU/carrier n2 [1, 6]: 2200 CFU/carrier | Cell count CFU/carrier n3 [1, 6]: 7700 CFU/carrier | Log value [1, 6]: 3.7 | Observed bactericidal efficacy [1, 6]: Δ | Cell count CFU/carrier average [1, 7]: <10 CFU/carrier | Cell count CFU/carrier n1 [1, 7]: 4200 CFU/carrier | Cell count CFU/carrier n2 [1, 7]: <10 CFU/carrier | Cell count CFU/carrier n3 [1, 7]: <10 CFU/carrier | Log value [1, 7]: 3.1 | Observed bactericidal efficacy [1, 7]: ○ | Cell count CFU/carrier average [1, 8]: <10 CFU/carrier | Cell count CFU/carrier n1 [1, 8]: <10 CFU/carrier | Cell count CFU/carrier n2 [1, 8]: <10 CFU/carrier | Cell count CFU/carrier n3 [1, 8]: <10 CFU/carrier | Log value [1, 8]: <1.0 | Observed bactericidal efficacy [1, 8]: ○ | Cell count CFU/carrier average [1, 9]: <10 CFU/carrier | Cell count CFU/carrier n1 [1, 9]: <10 CFU/carrier | Cell count CFU/carrier n2 [1, 9]: <10 CFU/carrier | Cell count CFU/carrier n3 [1, 9]: <10 CFU/carrier | Log value [1, 9]: <1.0 | Observed bactericidal efficacy [1, 9]: ○ | Cell count CFU/carrier average [1, 10]: 4500 CFU/carrier | Cell count CFU/carrier n1 [1, 10]: 3200 CFU/carrier | Cell count CFU/carrier n2 [1, 10]: 1800 CFU/carrier | Cell count CFU/carrier n3 [1, 10]: 8600 CFU/carrier | Log value [1, 10]: 3.7 | Cell count CFU/carrier average [1, 11]: <10 CFU/carrier | Cell count CFU/carrier n1 [1, 11]: <10 CFU/carrier | Cell count CFU/carrier n2 [1, 11]: <10 CFU/carrier | Cell count CFU/carrier n3 [1, 11]: <10 CFU/carrier | Log value [1, 11]: 1.0 | Cell count CFU/carrier average [1, 12]: 32 CFU/carrier | Cell count CFU/carrier n1 [1, 12]: 10 CFU/carrier | Cell count CFU/carrier n2 [1, 12]: 75 CFU/carrier | Cell count CFU/carrier n3 [1, 12]: <10 CFU/carrier | Log value [1, 12]: 1.5 | Cell count CFU average [2, 13]: 616.6 CFU | Cell count CFU n1 [2, 13]: 612 CFU | Cell count CFU n2 [2, 13]: 439 CFU | Cell count CFU n3 [2, 13]: 1050 CFU | Cell count CFU n4 [2, 13]: 386 CFU | Cell count CFU n5 [2, 13]: 596 CFU | Cell count CFU average [2, 14]: 149.2 CFU | Cell count CFU n1 [2, 14]: 250 CFU | Cell count CFU n2 [2, 14]: 35 CFU | Cell count CFU n3 [2, 14]: 178 CFU | Cell count CFU n4 [2, 14]: 150 CFU | Cell count CFU n5 [2, 14]: 133 CFU | Cell count CFU average [2, 15]: 9.2 CFU | Cell count CFU n1 [2, 15]: 9 CFU | Cell count CFU n2 [2, 15]: 22 CFU | Cell count CFU n3 [2, 15]: 13 CFU | Cell count CFU n4 [2, 15]: 0 CFU | Cell count CFU n5 [2, 15]: 2 CFU | Cell count CFU average [2, 16]: 0 CFU | Cell count CFU n1 [2, 16]: 0 CFU | Cell count CFU n2 [2, 16]: 0 CFU | Cell count CFU n3 [2, 16]: 0 CFU | Cell count CFU n4 [2, 16]: 0 CFU | Cell count CFU n5 [2, 16]: 0 CFU
